Broadly, the solubility is the concentration that dissolves in the medium under given conditions.

Series [1] concerns Staphylococcus aureus NCTC 13373 (mecA-positive; methicillin-resistant). In words: In vitro antibacterial activity, MIC (UCL School of Pharmacy assay), MRSA. The format is cell-based. The conditions noted are these: for MIC: Staphylococcus aureus. An outline of the steps:
(§1)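 MIC determined over 32–0.03 μg/mL in 2-fold steps, with at most 2% DMSO, in isosensitest broth. Organisms were suspended in PBS to A600 0.1 (about 1 × 10^8 CFU/mL), diluted 1:100 and inoculated; vancomycin served as QC compound.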

The test system of series [2] is S. aureus ATCC 25923 (methicillin-susceptible). The series can be described thus: In vitro antibacterial activity, MIC (UCL), MSSA. The class given is cell-based, Staphylococcus aureus. The conditions noted are these: for MIC: Staphylococcus aureus. An outline of the steps: as §1
Series [3] has as its system Enterococcus faecalis ATCC 51299 (vanA-positive; vancomycin-resistant). The series can be described thus: In vitro antibacterial activity, MIC (UCL), VRE. The format is cell-based. An outline of the steps: as §1
A further series in a line: Aqueous solubility. The class given is physicochemical. The conditions noted are these: thermodynamic from solid.
A further series can be described thus: LogD7.4 (Chrom Log D). The class given is physicochemical. The text has this:
To guide our initial SAR exploration work, we obtained liver microsomal intrinsic clearance data for 5 of the 18 compounds assayed by CO-ADD (Supporting Information - CDCO Report and Supporting Information - Biology). We then acquired intrinsic clearance (CLint), plasma protein binding (PPB), and solubility data on further compounds throughout the SAR campaign (Supporting Information - Biology, Tables S3 and S4). […] The more polar compounds (lower LogD) had reduced PPB and were more metabolically stable.
Table S4. ADME and Pharmacokinetics: compounds only appearing in the Supplementary […]
MRSA Aqueous HLM CLint Rat Hep CLint
Cmpd MIC Solubility Human PPB (%) (µL/min/mg (µL/min/10x6 LogD7.4
(µg/mL) (µM) protein) cells)
(§2) ADME and toxicity for compounds were measured according to procedures outlined in the manuscript submitted in parallel to this one;2 other procedures were used for those compounds analysed by Monash University (in vitro ADME) or UCL (toxicity), both described in the main

Series [4] in a line: Human plasma protein binding (PPB). The conditions noted are these: human, plasma, human plasma, NEU. The format is in vitro ADME.
Series [5] can be described thus: Rat hepatocyte intrinsic clearance. The format is in vitro ADME.
Series [6] relates to MRC-5SV2 (human lung fibroblast cell line). The series can be described thus: Toxicity against MRC-5SV2. The class given is cell-based. As for the experimental part: as §2
Series [7] has as its system PMM (primary mouse macrophages). The series can be described thus: Toxicity against PMM. The class given is cell-based. As for the experimental part:
as §2

A further series relates to VSE. The series can be described thus: In vitro antibacterial activity, MIC, VSE. The class given is cell-based. The conditions noted are these: for MIC: read-out: VSE MIC (UCL).
Series [8] can be described thus: Human liver microsome intrinsic clearance. The class given is in vitro ADME.
Setting [9] is: NEU, read-out: Aqueous Solubility (NEU).
Where [10] appears, read: chromatographic system (Chrom Log D), pH 7.4, NEU, read-out: LogD 7.4 (NEU).
Where [11] appears, read: read-out: Human PPB (NEU) (converted).
Setting [12] is: rat hepatocytes, NEU, read-out: Rat Hep CLint (NEU).
Where [13] appears, read: human liver microsomes, NEU, read-out: HLM CLint (NEU).

≈ marks a conversion by molar mass, not a printed value. Where “and” joins values, the source holds several entries; their conditions need not be identical. Equal values may be shown once. Read-outs that look alike come from different tables or passages of the source. Where only a bound is given, the exact number is not on record here.

In the case of `Fc1ccc(Nc2c(-c3ccccn3)nc3sccn23)cc1` [OSA_000984], the MIC in [1] (UCL, read-out: MRSA MIC (UCL)) was determined as 8 µg/mL (≈ 25.8 µM); in series [2] (read-out: MSSA MIC (UCL)), 4 µg/mL (≈ 12.9 µM); in series [3] (read-out: VRE MIC (UCL)), 8 µg/mL (≈ 25.8 µM). Further, the solubility in “Aqueous solubility” (setting [9]) is 54 µM (≈ 16.8 µg/mL). Also, in “LogD7.4 (Chrom Log D)” (setting [10]), the chromatographic logD came to 0.9. Moreover, in series [4] (setting [11]), the fraction unbound is 0.014. Also, the hepatocyte CLint in [5] (setting [12]) is more than 300 µL/min/1e6 cells. Besides, the “MRC5 TC50” value in [6] (MRC5 cells) was determined as 6.4 µM. The “PMM TC50” value in [7] (PMM) stood at 32 µM.
On to `Cc1ccc(Nc2c(-c3ccccn3)nc3ccccn23)cc1` [OSA_000988], for which the MIC in [1] (UCL, read-out: MRSA MIC (UCL)) is 4 µg/mL (≈ 13.3 µM); in series [2] (read-out: MSSA MIC (UCL)), 4 µg/mL (≈ 13.3 µM); in series [3] (read-out: VRE MIC (UCL)) it was 16 µg/mL (≈ 53.3 µM); in the series on VSE, 16 µg/mL (≈ 53.3 µM). In series [4] (setting [11]), the fraction unbound was 0.007. For the same compound, the microsomal CLint in series [8] (setting [13]) turned out to be 86.9 µL/min/mg. The hepatocyte CLint in series [5] (setting [12]) was more than 300 µL/min/1e6 cells.
As for `COc1ccc(-c2nc3ccc(OC)cn3c2N(C)c2ccc(F)cc2)nc1` [OSA_000999], the MIC in series [1] (UCL, read-out: MRSA MIC (UCL)) came out at 8 µg/mL (≈ 21.1 µM); in series [2] (read-out: MSSA MIC (UCL)), 8 µg/mL (≈ 21.1 µM); in series [3] (read-out: VRE MIC (UCL)) it was 16 µg/mL (≈ 42.3 µM); in the series with VSE it was 16 µg/mL (≈ 42.3 µM). Also, the solubility in the series “Aqueous solubility” (setting [9]) was found to be 27 µM (≈ 10.2 µg/mL). The fraction unbound in series [4] (setting [11]) was 0.0063. In series [8] (human liver microsomes, NEU), the “HLM CLint (NEU)” value is reported as 261 uL/min/mg protein. In addition, the hepatocyte CLint in series [5] (setting [12]) is more than 300 µL/min/1e6 cells.
For the compound `COc1cccn2c(N(C)c3ccc(F)cc3)c(-c3ccccn3)nc12` [OSA_001001], the MIC in series [1] (UCL, read-out: MRSA MIC (UCL)) was 16 µg/mL (≈ 45.9 µM); in series [2] (read-out: MSSA MIC (UCL)), 16 µg/mL (≈ 45.9 µM). Besides, the solubility in the series “Aqueous solubility” (setting [9]) amounted to 26 µM (≈ 9.06 µg/mL). Further, the chromatographic logD in the series “LogD7.4 (Chrom Log D)” (setting [10]) was 3.5. Moreover, in series [4] (setting [11]), the fraction unbound is 0.026. Also, the microsomal CLint in [8] (setting [13]) stood at 65.9 µL/min/mg. For the same compound, in [5] (setting [12]), the hepatocyte CLint is more than 300 µL/min/1e6 cells.
As for `CN(c1ccc(F)cc1)c1c(-c2ccccn2)nc2ccc(Br)cn12` [OSA_001003], the MIC was 16 µg/mL (≈ 40.3 µM) in series [1] (UCL, read-out: MRSA MIC (UCL)) and 16 µg/mL (≈ 40.3 µM) in series [2] (read-out: MSSA MIC (UCL)). Also, the solubility in “Aqueous solubility” (setting [9]) was 4 µM (≈ 1.59 µg/mL). For the same compound, in the series “LogD7.4 (Chrom Log D)” (setting [10]), the chromatographic logD was determined as 4.2. The fraction unbound in series [4] (setting [11]) was 0.0018. Further, in series [8] (setting [13]), the microsomal CLint amounted to 61.6 µL/min/mg. The hepatocyte CLint in series [5] (setting [12]) was more than 300 µL/min/1e6 cells.
As to `CSc1ccc2nc(-c3ccccn3)c(N(C)c3ccc(F)cc3)n2c1` [OSA_001004], the MIC in [1] (UCL, read-out: MRSA MIC (UCL)) came to 8 µg/mL (≈ 22 µM); in [2] (read-out: MSSA MIC (UCL)), 8 µg/mL (≈ 22 µM). Moreover, the solubility in the series “Aqueous solubility” (setting [9]) was 7 µM (≈ 2.55 µg/mL). In addition, the chromatographic logD in “LogD7.4 (Chrom Log D)” (setting [10]) was 4.5. In series [4] (setting [11]), the fraction unbound is 0.0054. For the same compound, the microsomal CLint in series [8] (setting [13]) is more than 300 µL/min/mg. Moreover, the hepatocyte CLint in [5] (setting [12]) was more than 300 µL/min/1e6 cells.
Regarding `CN(c1ccc(F)cc1)c1c(-c2ccccn2)nc2cccc(F)n12` [OSA_001005], the MIC in series [1] (UCL, read-out: MRSA MIC (UCL)) came out at 32 µg/mL (≈ 95.1 µM); in [2] (read-out: MSSA MIC (UCL)) it was 32 µg/mL (≈ 95.1 µM). The solubility in the series “Aqueous solubility” (setting [9]) came out at 64 µM (≈ 21.5 µg/mL). Moreover, the chromatographic logD in “LogD7.4 (Chrom Log D)” (setting [10]) stood at 1.8. In addition, the fraction unbound in [4] (setting [11]) was 0.035. Further, in series [8] (setting [13]), the microsomal CLint is 79.3 µL/min/mg. Also, the hepatocyte CLint in series [5] (setting [12]) was more than 300 µL/min/1e6 cells.
For the compound `COc1cccc(-c2nc3ccccn3c2N(CC(C)C)c2ccc(F)cc2)n1` [OSA_001025], the MIC in [1] (UCL assay, read-out: MRSA MIC (ug/mL) (UCL)) is more than 32 µg/mL; in series [2] (UCL assay, read-out: MSSA MIC (ug/mL) (UCL)) it was more than 32 µg/mL. In “Aqueous solubility” (NEU, read-out: Aqueous Solubility (uM) (NEU)), the solubility was determined as 0.7 µM (≈ 0.273 µg/mL). Also, in the series “LogD7.4 (Chrom Log D)” (setting [10]), the chromatographic logD was more than 3.7. The fraction unbound in [4] (read-out: Human PPB (%) (NEU) (converted)) was less than 0.01. Moreover, the microsomal CLint in [8] (human liver microsomes, NEU, read-out: HLM CLint (uL/min/mg protein) (NEU)) turned out to be 86.8 µL/min/mg.
`Fc1ccc(-c2c(-c3ccccn3)nc3ccccn23)cc1` [compound 859]: in series [1], the “activity against MRSA, in words” value is “inactive”. The MIC in series [1] (16 h, read-out: MRSA MIC) was more than 32 µg/mL; in series [1] (read-out: MRSA MIC), 32 µg/mL (≈ 111 µM); in series [3] (read-out: VRE MIC), more than 32 µg/mL. The solubility in “Aqueous solubility” (read-out: Aqueous Solubility) amounted to 178 µM (≈ 51.5 µg/mL). Besides, the chromatographic logD in “LogD7.4 (Chrom Log D)” (pH 7.4, read-out: LogD7.4) was determined as 3. Besides, in [8] (human, liver microsomes, read-out: HLM CLint), the microsomal CLint turned out to be 168 µL/min/mg. In series [5] (rat, hepatocytes, Figure 4, read-out: Rat Hep CLint), the hepatocyte CLint came to 49.8 µL/min/1e6 cells. The “MRC5 TC50” value in [6] is on record as 3.0 µg/mL. For the same compound, the “PMM TC50” value in [7] stood at 9.3 µg/mL.
In the case of `N#CCc1ccc(-n2c(-c3ccccn3)nc3ccccc32)cc1` [compound 996], in [1], the “MRSA MIC” value is > 32 µg/mL and 32 µg/mL. Also, in series [2], the “MSSA MIC” value came to 32 µg/mL. Also, the “VRE MIC” value in series [3] is on record as more than 32 µg/mL. The “VSE MIC” value in the series with VSE is given as more than 32 µg/mL. For the same compound, the “MRC5 TC50” value in [6] turned out to be 19.9 µg/mL. In addition, the “PMM TC50” value in series [7] was 19.9 µg/mL.

The values are drawn from PMC10714399, “Open Source Antibiotics: Simple Diarylimidazoles Are Potent against Methicillin-Resistant Staphylococcus aureus” (ACS Infectious Diseases, 2023).
